According to patent publication US20140288052A1, “SUBSTITUTED BICYCLIC AZA-HETEROCYCLES AND ANALOGUES AS SIRTUIN MODULATORS” (GlaxoSmithKline, LLC, priority 2011, published 2014):

Assays:
SIRT1 [1] = target: T1, SIRT1 (Homo sapiens, UniProt Q96EB6); assay: Trp mass spectrometry assay of SIRT1 deacetylase activation; assay type: biochemical; conditions: Trp peptide substrate; for TRP EC1.5 (μM): concentration that results in 150% activation of SIRT1; for TRP % Fold Act: percent maximum fold activation relative to control (100%)
T1 sequence (Q96EB6 1-747): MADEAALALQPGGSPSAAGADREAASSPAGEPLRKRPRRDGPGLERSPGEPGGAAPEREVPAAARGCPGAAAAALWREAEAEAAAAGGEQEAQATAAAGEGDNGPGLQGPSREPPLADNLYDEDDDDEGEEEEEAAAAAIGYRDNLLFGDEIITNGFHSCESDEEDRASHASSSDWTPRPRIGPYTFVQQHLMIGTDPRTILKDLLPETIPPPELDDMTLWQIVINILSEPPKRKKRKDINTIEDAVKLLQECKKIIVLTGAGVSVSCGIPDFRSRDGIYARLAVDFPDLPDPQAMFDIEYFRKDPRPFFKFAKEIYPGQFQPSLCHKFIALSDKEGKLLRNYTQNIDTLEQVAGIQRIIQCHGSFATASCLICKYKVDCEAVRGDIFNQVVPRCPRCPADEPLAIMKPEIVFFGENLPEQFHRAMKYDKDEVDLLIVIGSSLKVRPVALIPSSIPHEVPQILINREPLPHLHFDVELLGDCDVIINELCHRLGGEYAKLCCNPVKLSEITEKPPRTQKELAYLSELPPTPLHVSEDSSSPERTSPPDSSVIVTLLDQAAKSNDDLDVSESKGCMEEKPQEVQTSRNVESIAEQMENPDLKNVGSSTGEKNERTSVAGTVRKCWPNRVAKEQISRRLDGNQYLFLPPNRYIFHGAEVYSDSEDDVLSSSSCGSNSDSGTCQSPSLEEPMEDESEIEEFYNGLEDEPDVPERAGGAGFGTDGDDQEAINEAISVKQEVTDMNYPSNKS
Description: (§1) Mass spectrometry based assays were used to identify modulators of SIRT1 activity. The TAMRA based assay utilized a peptide having 20 amino acid residues as follows: Ac-EE-K(biotin)-GQSTSSHSK(Ac)NleSTEG-K(5TMR)-EE-NH2 (SEQ ID NO: 1), wherein K(Ac) is an acetylated lysine residue and Nle is a norleucine. The peptide was labeled with the fluorophore 5TMR (excitation 540 nm/emission 580 nm) at the C-terminus. The sequence of the peptide substrate was based on p53 with several modifications. In addition, the methionine residue naturally present in the sequence was replaced with the norleucine because the methionine may be susceptible to oxidation during synthesis and purification. The Trp based assay utilized a peptide having an amino acid residues as follows: Ac-R-H-K-K(Ac)-W-NH2 (SEQ ID NO: 2).
The Trp mass spectrometry assay was conducted as follows. 0.5 μM peptide substrate and 120 μM βNAD^+ were incubated with 10 nM SIRT1 for 25 minutes at 25° C. in a reaction buffer (50 mM HEPES pH 7.5, […], 1 mM DTT, 0.05% BSA). The SIRT1 protein was obtained by cloning the SirT1 gene into a T7-promoter containing vector, which was then expressed in BL21(DE3) bacterial cells and purified as described in further detail below. Test compound was added at varying concentrations to this reaction mixture and the resulting reactions were monitored. After the 25 minute incubation with SIRT1, 10 μL of 10% formic acid was added to stop the reaction. The resulting reactions were sealed and frozen for later mass spec analysis. The relative SIRT1 activity was then determined by measuring the amount of O-acetyl-ADP-ribose (OAADPR) formed (or, alternatively, the amount of deacetylated Trp peptide generated) by the NAD-dependent sirtuin deacetylation reaction in the presence of varying concentrations of the test compound versus control reactions lacking the test compound. The degree to which the test agent activated deacetylation by SIRT1 was expressed as EC1.5 (i.e., the concentration of compound required to increase SIRT1 activity by 50% over the control lacking test compound), and Percent Maximum Activation (i.e., the maximum activity relative to control (100%) obtained for the test compound).
(§2) A control for inhibition of sirtuin activity was conducted by adding 1 μL of 500 mM nicotinamide as a negative control at the start of the reaction (e.g., permits determination of maximum sirtuin inhibition). A control for activation of sirtuin activity was conducted using 10 nM of sirtuin protein, with 1 μL of DMSO in place of compound, to determine the amount of deacetylation of the substrate at a given time point within the linear range of the assay. This time point was the same as that used for test compounds and, within the linear range, the endpoint represents a change in velocity. For the above assay, SIRT1 protein was expressed and purified as follows. The SirT1 gene was cloned into a T7-promoter containing vector and transformed into BL21(DE3). The protein was expressed by induction with 1 mM IPTG as an N-terminal His-tag fusion protein at 18° C. overnight and harvested at 30,000×g. Cells were lysed with lysozyme in lysis buffer (50 mM Tris-HCl, 2 mM Tris[2-carboxyethyl] phosphine (TCEP), 10 μM ZnCl2, 200 mM NaCl) and further treated with sonication for 10 min for complete lysis. The protein was purified over a Ni-NTA column (Amersham) and fractions containing pure protein were pooled, concentrated and run over a sizing column (Sephadex S200 26/60 global). The peak containing soluble protein was collected and run on an Ion-exchange column (MonoQ). Gradient elution (200 mM-500 mM NaCl) yielded pure protein. This protein was concentrated and dialyzed against dialysis buffer (20 mM Tris-HCl, 2 mM TCEP) overnight. The protein was aliquoted and frozen at −80° C. until further use.
Sirtuin-modulating compounds of Formula (I) that activated SIRT1 were identified using the assay described above and are shown below in Table 1. […]

SIRT1 [2] = target: T1, SIRT1; assay: TAMRA based mass spectrometry assay of SIRT1 deacetylase activation; assay type: biochemical; conditions: TAMRA peptide substrate; for TAMRA EC1.5 (μM): concentration that results in 150% activation of SIRT1; for TAMRA % Fold Act: percent maximum fold activation relative to control (100%)
Description: as §1
The TAMRA based mass spectrometry assay was conducted as follows: 0.5 μM peptide substrate and 120 μM βNAD^+ was incubated with 10 nM SIRT1 for 25 minutes at 25° C. in a reaction buffer (50 mM Tris-acetate pH 8, 137 mM NaCl, 2.7 mM KCl, 1 mM MgCl2, 5 mM DTT, 0.05% BSA). The SIRT1 protein was obtained by cloning the SirT1 gene into a T7-promoter containing vector, which was then transformed and expressed in BL21(DE3) bacterial cells. Test compound was added at varying concentrations to this reaction mixture and the resulting reactions were monitored. After the 25 minute incubation with SIRT1, 10 μL of 10% formic acid was added to stop the reaction. The resulting reactions were sealed and frozen for later mass spec analysis. Determination of the amount of deacetylated substrate peptide formed (or, alternatively, the amount of O-acetyl-ADP-ribose (OAADPR) generated) by the sirtuin-mediated NAD-dependent deacetylation reaction allowed for the precise measurement of relative SIRT1 activity in the presence of varying concentrations of the test compound versus control reactions lacking the test compound.
as §2
Sirtuin-modulating compounds of Formula (I) that activated SIRT1 were identified using the assay described above and are shown below in Table 1. The EC1.5 values represent the concentration of test compounds that result in 150% activation of SIRT1. The EC1.5 values for the activating compounds of Formula (I) are represented by A (EC1.5<1 μM), B (EC1.5 1−25 μM), C (EC1.5>25 μM). […]

SMILES | TRP EC1.5 (μM) (SIRT1 [1]) | TRP % Fold Act (SIRT1 [1]) | TAMRA EC1.5 (μM) (SIRT1 [2]) | TAMRA % Fold Act (SIRT1 [2])
O=C(Nc1cnccn1)c1ccnc2cc(-c3cccc(C(F)(F)F)c3)nn12 [Compound 102] | C (EC1.5>25 μM) | B (Fold Activation<350%) | C (EC1.5>25 μM) | B (Fold Activation<350%)
Cc1cnc(NC(=O)c2ccnn3cc(-c4cccc(C(F)(F)F)c4)nc23)s1 [Compound 18] | C (EC1.5>25 μM) | B (Fold Activation<350%) | C (EC1.5>25 μM) | B (Fold Activation<350%)
O=C(Nc1ccnc2cc(-c3ccccc3C(F)(F)F)nn12)c1ncccn1 [Compound 60] | B (EC1.5 1−25 μM) | B (Fold Activation<350%) | A (EC1.5<1 μM) | A (Fold activation≧350%)
Cc1cccc(C(=O)Nc2ccnc3cc(-c4ccccc4C(F)(F)F)nn23)n1 [Compound 109] | C (EC1.5>25 μM) | B (Fold Activation<350%) | A (EC1.5<1 μM) | A (Fold activation≧350%)
O=C(Nc1ccncc1)c1cc(N2CCOCC2)nn2cc(-c3ccccc3Cl)nc12 [Compound 53] |  |  | C (EC1.5>25 μM) | B (Fold Activation<350%)
O=C(Nc1ccnc2cc(-c3cccc(C(F)(F)F)c3)nn12)c1cnccn1 [Compound 72] | C (EC1.5>25 μM) | B (Fold Activation<350%) |  | 
Cc1cnc(NC(=O)c2cc(N3CCOCC3)nn3cc(-c4ccccc4F)nc23)s1 [Compound 38] | C (EC1.5>25 μM) | B (Fold Activation<350%) |  | 
O=C(Nc1ccnc(N2CCOCC2)c1)c1ccnn2cc(-c3ccccc3C(F)(F)F)nc12 [Compound 15] |  |  | A (EC1.5<1 μM) | A (Fold activation≧350%)
O=C(Nc1cccnc1)c1cc(N2CCOCC2)nn2cc(-c3ccccc3Cl)nc12 [Compound 52] |  |  | C (EC1.5>25 μM) | B (Fold Activation<350%)
O=C(Nc1nccs1)c1cc(N2CCOCC2)nn2cc(-c3ccccc3Cl)nc12 [Compound 34] | B (EC1.5 1−25 μM) | B (Fold Activation<350%) |  | 
O=C(Nc1ccccn1)c1ccnc2cc(-c3cccc(C(F)(F)F)c3)nn12 [Compound 84] | C (EC1.5>25 μM) | B (Fold Activation<350%) |  | 
O=C(Nc1ccnc(N2CCOCC2)c1)c1ccnn2cc(-c3ccccc3F)nc12 [Compound 7] |  |  | C (EC1.5>25 μM) | B (Fold Activation<350%)
O=C(Nc1cccc(N2CCOCC2)n1)c1ccnn2cc(-c3cccc(C(F)(F)F)c3)nc12 [Compound 20] |  |  | A (EC1.5<1 μM) | B (Fold Activation<350%)
Cc1cnc(NC(=O)c2cc(N3CCOCC3)nn3cc(-c4ccccc4Cl)nc23)s1 [Compound 35] | C (EC1.5>25 μM) | B (Fold Activation<350%) |  | 
Cc1cnc(NC(=O)c2cc(N3CCOCC3)nn3cc(-c4cccc(Cl)c4)nc23)s1 [Compound 31] |  |  | C (EC1.5>25 μM) | B (Fold Activation<350%)
O=C(Nc1ccnc(N2CCOCC2)c1)c1ccnn2cc(-c3cccc(C(F)(F)F)c3)nc12 [Compound 19] |  |  | C (EC1.5>25 μM) | B (Fold Activation<350%)
O=C(Nc1ccnc(N2CCOCC2)c1)c1ccnn2cc(-c3ccccc3Cl)nc12 [Compound 9] |  |  | B (EC1.5 1−25 μM) | B (Fold Activation<350%)
O=C(Nc1cccnc1)c1cc(N2CCOCC2)nn2cc(-c3cccc(C(F)(F)F)c3)nc12 [Compound 50] |  |  | C (EC1.5>25 μM) | B (Fold Activation<350%)
O=C(Nc1nccs1)c1ccnn2cc(-c3ccccc3Cl)nc12 [Compound 3] |  |  | C (EC1.5>25 μM) | B (Fold Activation<350%)
O=C(Nc1cccc(N2CCOCC2)n1)c1ccnn2cc(-c3cccc(Cl)c3)nc12 [Compound 24] |  |  | C (EC1.5>25 μM) | B (Fold Activation<350%)
Cc1nc(C(=O)Nc2ccnc3cc(-c4cccc(C(F)(F)F)c4)nn23)c(C)s1 [Compound 68] | C (EC1.5>25 μM) | B (Fold Activation<350%) |  | 
Cc1cnc(C(=O)Nc2ccnc3cc(-c4cccc(C(F)(F)F)c4)nn23)s1 [Compound 69] | C (EC1.5>25 μM) | B (Fold Activation<350%) |  | 
O=C(Nc1cccc(N2CCOCC2)n1)c1ccnn2cc(-c3cccc(F)c3)nc12 [Compound 11] |  |  | C (EC1.5>25 μM) | B (Fold Activation<350%)
O=C(Nc1ccncc1)c1cc(N2CCOCC2)nn2cc(-c3cccc(C(F)(F)F)c3)nc12 [Compound 51] |  |  | C (EC1.5>25 μM) | B (Fold Activation<350%)
Cc1nc(C(=O)Nc2ccnc3cc(-c4cccc(C(F)(F)F)c4)nn23)cs1 [Compound 67] | C (EC1.5>25 μM) | B (Fold Activation<350%) |  | 
